Experimental data taken from paper PMC11899342, “Novel Triazeneindole Antibiotics: Synthesis and Hit-to-Lead Optimization” (International Journal of Molecular Sciences, 2025).

System: Wistar outbred rats
Experiment: Single-dose acute toxicity, intragastric administration
Type: in vivo, rat
Conditions: for Changes Appearance / Changes Behavior / Changes Body Weight / Changes Feed Intake / Changes Organ Histology / Changes Organ Weight / Changes Water Intake: 14-day follow-up; for Relative organ weight, Adrenal glands / Relative organ weight, Brain / Relative organ weight, Heart / Relative organ weight, Kidneys / Relative organ weight, Liver / Relative organ weight, Lungs with trachea / Relative organ weight, Ovaries / Relative organ weight, Spleen / Relative organ weight, Thymus / Relative organ weight, Testes: after 15 days, M±SEM; for number of animals that died: all dose groups; for Deaths (Dead/ Total): Wistar, rat, in vivo
Protocol: Before administration, the BX-SI043 substance was resuspended in a 1% starch solution. The animals in the treatment groups received suspensions intragastrically in doses of 2000 mg/kg (administered in two equal doses, with a 30–40 min interval), 1000 mg/kg, 600 mg/kg, and 300 mg/kg (administered in single doses).
The animals were monitored daily for any abnormalities. On the 2nd, 7th, and 13th days after administration, the animals were clinically evaluated and weighed, and the consumption of feed and water were measured. On the 14th day, the behavior of the animals was evaluated. On the 15th day, the animals were euthanized, and the lungs (with trachea), heart, thymus, liver, kidneys, spleen, stomach, small intestine, colon, brain, adrenal glands, and testes/ovaries were fixed in 10% neutral formalin for histological evaluation.

[1] = female rats, 300 mg/kg intragastric
[2] = female rats, 600 mg/kg intragastric
[3] = female rats, 1000 mg/kg intragastric
[4] = female rats, 2000 mg/kg intragastric
[5] = male rats, 300 mg/kg intragastric
[6] = male rats, 600 mg/kg intragastric
[7] = male rats, 1000 mg/kg intragastric
[8] = male rats, 2000 mg/kg intragastric

CCOC(=O)c1[nH]c2cc(F)ccc2c1/N=N/N1CCCC1 [BX-SI043, Ethyl (E)-6-fluoro-3-(pyrrolidin-1-yldiazenyl)-1H-indole-2-carboxylate]
Changes Appearance [1]: no | Changes Behavior [1]: no | Changes Body Weight [1]: no | Changes Feed Intake [1]: no | Changes Organ Histology [1]: no | Changes Organ Weight [1]: no | Changes Water Intake [1]: no | Relative organ weight, Adrenal glands [1]: 0,03±0,003 % of body weight | Relative organ weight, Brain [1]: 0,84±0,032 % of body weight | Relative organ weight, Heart [1]: 0,46±0,012 % of body weight | Relative organ weight, Kidneys [1]: 0,87±0,065 % of body weight | Relative organ weight, Liver [1]: 4,79±0,090 % of body weight | Relative organ weight, Lungs with trachea [1]: 0,77±0,037 % of body weight | Relative organ weight, Ovaries [1]: 0,067±0,0043 % of body weight | Relative organ weight, Spleen [1]: 0,37±0,033 % of body weight | Relative organ weight, Thymus [1]: 0,280±0,016 % of body weight | Body weight, M±SEM (female rats, 300 mg/kg intragastric, experiment day 1): 195,3±3,67 g | Body weight, M±SEM (female rats, 300 mg/kg intragastric, experiment day 2): 194,8±3,92 g | Body weight, M±SEM (female rats, 300 mg/kg intragastric, experiment day 7): 220,0±7,86 g | Body weight, M±SEM (female rats, 300 mg/kg intragastric, experiment day 15): 234,7±9,33 g | Changes Appearance [2]: no | Changes Behavior [2]: no | Changes Body Weight [2]: no | Changes Feed Intake [2]: no | Changes Organ Histology [2]: yes | Changes Organ Weight [2]: no | Changes Water Intake [2]: no | Relative organ weight, Adrenal glands [2]: 0,04±0,002 % of body weight | Relative organ weight, Brain [2]: 0,86±0,031 % of body weight | Relative organ weight, Heart [2]: 0,48±0,007 % of body weight | Relative organ weight, Kidneys [2]: 0,78±0,021 % of body weight | Relative organ weight, Liver [2]: 4,64±0,067 % of body weight | Relative organ weight, Lungs with trachea [2]: 0,82±0,044 % of body weight | Relative organ weight, Ovaries [2]: 0,066±0,0032 % of body weight | Relative organ weight, Spleen [2]: 0,33±0,045 % of body weight | Relative organ weight, Thymus [2]: 0,310±0,013 % of body weight | Body weight, M±SEM (female rats, 600 mg/kg intragastric, experiment day 1): 195,2±4,56 g | Body weight, M±SEM (female rats, 600 mg/kg intragastric, experiment day 2): 207,7±4,08 g | Body weight, M±SEM (female rats, 600 mg/kg intragastric, experiment day 7): 222,5±5,43 g | Body weight, M±SEM (female rats, 600 mg/kg intragastric, experiment day 15): 221,2±5,98 g | Changes Appearance [3]: no | Changes Behavior [3]: yes | Changes Body Weight [3]: no | Changes Feed Intake [3]: yes | Changes Organ Histology [3]: yes | Changes Organ Weight [3]: no | Changes Water Intake [3]: no | Relative organ weight, Adrenal glands [3]: 0,04±0,004 % of body weight | Relative organ weight, Brain [3]: 0,97±0,022 % of body weight | Relative organ weight, Heart [3]: 0,52±0,02 % of body weight | Relative organ weight, Kidneys [3]: 0,82±0,027 % of body weight | Relative organ weight, Liver [3]: 4,67±0,23 % of body weight | Relative organ weight, Lungs with trachea [3]: 0,79±0,057 % of body weight | Relative organ weight, Ovaries [3]: 0,085±0,0075 % of body weight | Relative organ weight, Spleen [3]: 0,42±0,05 % of body weight | Relative organ weight, Thymus [3]: 0,270±0,020 % of body weight | Body weight, M±SEM (female rats, 1000 mg/kg intragastric, experiment day 1): 185,7±4,61 g | Body weight, M±SEM (female rats, 1000 mg/kg intragastric, experiment day 2): 192,2±3,94 g | Body weight, M±SEM (female rats, 1000 mg/kg intragastric, experiment day 7): 189,6±6,16 g | Body weight, M±SEM (female rats, 1000 mg/kg intragastric, experiment day 15): 199,2±6,46 g | Changes Appearance [4]: yes | Changes Behavior [4]: yes | Changes Body Weight [4]: no | Changes Feed Intake [4]: yes | Changes Organ Histology [4]: yes | Changes Organ Weight [4]: no | Changes Water Intake [4]: no | Relative organ weight, Adrenal glands [4]: 0,04±0,004 % of body weight | Relative organ weight, Brain [4]: 0,93±0,027 % of body weight | Relative organ weight, Heart [4]: 0,41±0,079 % of body weight | Relative organ weight, Kidneys [4]: 0,89±0,033 % of body weight | Relative organ weight, Liver [4]: 4,73±0,167 % of body weight | Relative organ weight, Lungs with trachea [4]: 0,9±0,07 % of body weight | Relative organ weight, Ovaries [4]: 0,088±0,0092 % of body weight | Relative organ weight, Spleen [4]: 0,38±0,028 % of body weight | Relative organ weight, Thymus [4]: 0,310±0,032 % of body weight | Body weight, M±SEM (female rats, 2000 mg/kg intragastric, experiment day 1): 196,5±2,06 g | Body weight, M±SEM (female rats, 2000 mg/kg intragastric, experiment day 2): 205,8±1,64 g | Body weight, M±SEM (female rats, 2000 mg/kg intragastric, experiment day 7): 183,5±11,99 g | Body weight, M±SEM (female rats, 2000 mg/kg intragastric, experiment day 15): 210,8±5,91 g | number of animals that died (female rats): 2 animals | Deaths (Dead/ Total) (female, 300 mg/kg, 14 days): 0/6 | Deaths (Dead/ Total) (female, 600 mg/kg, 14 days): 0/6 | Deaths (Dead/ Total) (female, 1000 mg/kg, 14 days): 1/6 | Deaths (Dead/ Total) (female, 2000 mg/kg, 14 days): 1/6 | Changes Appearance [5]: no | Changes Behavior [5]: no | Changes Body Weight [5]: no | Changes Feed Intake [5]: no | Changes Organ Histology [5]: no | Changes Organ Weight [5]: no | Changes Water Intake [5]: no | Relative organ weight, Adrenal glands [5]: 0,022±0,0012 % of body weight | Relative organ weight, Brain [5]: 0,77±0,020 % of body weight | Relative organ weight, Heart [5]: 0,45±0,012 % of body weight | Relative organ weight, Kidneys [5]: 0,98±0,046 % of body weight | Relative organ weight, Liver [5]: 4,53±0,26 % of body weight | Relative organ weight, Lungs with trachea [5]: 0,71±0,034 % of body weight | Relative organ weight, Spleen [5]: 0,34±0,017 % of body weight | Relative organ weight, Testes [5]: 1,17±0,039 % of body weight | Relative organ weight, Thymus [5]: 0,246±0,0276 % of body weight | Body weight, M±SEM (male rats, 300 mg/kg intragastric, experiment day 1): 202,8±2,87 g | Body weight, M±SEM (male rats, 300 mg/kg intragastric, experiment day 2): 205,7±1,73 g | Body weight, M±SEM (male rats, 300 mg/kg intragastric, experiment day 7): 256,7±4,65 g | Body weight, M±SEM (male rats, 300 mg/kg intragastric, experiment day 15): 280,8±8,21 g | Changes Appearance [6]: no | Changes Behavior [6]: no | Changes Body Weight [6]: no | Changes Feed Intake [6]: no | Changes Organ Histology [6]: yes | Changes Organ Weight [6]: no | Changes Water Intake [6]: no | Relative organ weight, Adrenal glands [6]: 0,028±0,0017 % of body weight | Relative organ weight, Brain [6]: 0,77±0,013 % of body weight | Relative organ weight, Heart [6]: 0,50±0,013 % of body weight | Relative organ weight, Kidneys [6]: 0,94±0,031 % of body weight | Relative organ weight, Liver [6]: 4,69±0,216 % of body weight | Relative organ weight, Lungs with trachea [6]: 0,86±0,108 % of body weight | Relative organ weight, Spleen [6]: 0,32±0,036 % of body weight | Relative organ weight, Testes [6]: 1,28±0,033 % of body weight | Relative organ weight, Thymus [6]: 0,27±0,0191 % of body weight | Body weight, M±SEM (male rats, 600 mg/kg intragastric, experiment day 1): 201,3±2,80 g | Body weight, M±SEM (male rats, 600 mg/kg intragastric, experiment day 2): 222,2±2,63 g | Body weight, M±SEM (male rats, 600 mg/kg intragastric, experiment day 7): 253,3±4,15 g | Body weight, M±SEM (male rats, 600 mg/kg intragastric, experiment day 15): 274,3±6,51 g | Changes Appearance [7]: no | Changes Behavior [7]: yes | Changes Body Weight [7]: no | Changes Feed Intake [7]: yes | Changes Organ Histology [7]: yes | Changes Organ Weight [7]: no | Changes Water Intake [7]: no | Relative organ weight, Adrenal glands [7]: 0,027±0,0022 % of body weight | Relative organ weight, Brain [7]: 0,77±0,036 % of body weight | Relative organ weight, Heart [7]: 0,51±0,022 % of body weight | Relative organ weight, Kidneys [7]: 0,87±0,008 % of body weight | Relative organ weight, Liver [7]: 4,91±0,128 % of body weight | Relative organ weight, Lungs with trachea [7]: 1,00±0,096 % of body weight | Relative organ weight, Spleen [7]: 0,32±0,031 % of body weight | Relative organ weight, Testes [7]: 1,11±0,064 % of body weight | Relative organ weight, Thymus [7]: 0,278±0,0278 % of body weight | Body weight, M±SEM (male rats, 1000 mg/kg intragastric, experiment day 1): 191,0±5,79 g | Body weight, M±SEM (male rats, 1000 mg/kg intragastric, experiment day 2): 206,5±6,61 g | Body weight, M±SEM (male rats, 1000 mg/kg intragastric, experiment day 7): 231,8±12,48 g | Body weight, M±SEM (male rats, 1000 mg/kg intragastric, experiment day 15): 273,0±11,56 g | Changes Appearance [8]: yes | Changes Behavior [8]: yes | Changes Body Weight [8]: no | Changes Feed Intake [8]: yes | Changes Organ Histology [8]: yes | Changes Organ Weight [8]: no | Changes Water Intake [8]: no | Relative organ weight, Adrenal glands [8]: 0,026±0,0014 % of body weight | Relative organ weight, Brain [8]: 0,78±0,024 % of body weight | Relative organ weight, Heart [8]: 0,48±0,046 % of body weight | Relative organ weight, Kidneys [8]: 0,90±0,034 % of body weight | Relative organ weight, Liver [8]: 4,08±0,252 % of body weight | Relative organ weight, Lungs with trachea [8]: 0,75±0,037 % of body weight | Relative organ weight, Spleen [8]: 0,28±0,018 % of body weight | Relative organ weight, Testes [8]: 1,2±0,120 % of body weight | Relative organ weight, Thymus [8]: 0,20±0,0116 % of body weight | Body weight, M±SEM (male rats, 2000 mg/kg intragastric, experiment day 1): 196,0±1,61 g | Body weight, M±SEM (male rats, 2000 mg/kg intragastric, experiment day 2): 212,7±3,91 g | Body weight, M±SEM (male rats, 2000 mg/kg intragastric, experiment day 7): 236,0±1,53 g | Body weight, M±SEM (male rats, 2000 mg/kg intragastric, experiment day 15): 259,7±3,18 g | number of animals that died (male rats): 4 animals | Deaths (Dead/ Total) (male, 300 mg/kg, 14 day): 0/6 | Deaths (Dead/ Total) (male, 600 mg/kg, 14 day): 0/6 | Deaths (Dead/ Total) (male, 1000 mg/kg, 14 day): 1/6 | Deaths (Dead/ Total) (male, 2000 mg/kg, 14 day): 3/6
